Assays:
[1] = Optical characteristics (UV-Vis absorption and fluorescence spectroscopy); type: physicochemical; conditions: physiological conditions
Method: UV-visible spectra were obtained with Shimadzu UV-1800. A fluorescence spectroscopic test was performed with Hitachi F7000.
The slit width in the fluorescence measurement was 1 nm for both excitation and light emission. The photomultiplier tube voltage was 400 V. The area under the light emission spectrum of the test sample and the spectral area of the standard sample were determined and calculated by the following equation to determine a relative fluorescence quantum yield (Φfl).
The optical characteristics of the probe (1 μM) were examined in a 0.1 M sodium phosphate buffer containing 0.1% DMSO as a co-solvent.
Therefore, it is expected that HMRIef in which iodine is introduced into the xanthene ring site of HMRef is also placed in the same equilibrium. […] In addition, a fluorescence spectrum was also measured. […]
FIG. 3(a) illustrates the chemical structure and optical characteristics of HMRIef. FIG. 3(b) illustrates the measurement results of the absorption spectrum and fluorescence spectrum of HMRIef (measurement was performed in a 0.1 M sodium phosphate buffer containing 0.1% DMSO as a co-solvent. dye concentration: 1 μM (absorption) or 10 μM (fluorescence)). FIG. 3(c) illustrates the measurement results of the absorption spectra measured in 0.1 M sodium phosphate buffers with various pH containing 0.1% DMSO as a co-solvent (dye concentration: 1 μM). […]

[2] = Detection of singlet oxygen by near infrared spectroscopy; type: physicochemical; conditions: PBS pH 7.4, 0.1% DMSO, dye 1 μM, 508 nm excitation; mean±S.D.
Method: Singlet oxygen was detected by measuring ^1O2 light emission near 1,270 nm by laser irradiation using a near infrared emission spectrometer (Fluorolog-3, Horiba, Japan). A dye was dissolved in phosphate buffered saline (PBS) containing 0.1% DMSO as a co-solvent and irradiation was performed with light at a wavelength of 508 nm. In order to calculate a ^1O2 quantum yield, the light emission signal was integrated for each wavelength for 7 seconds. A singlet oxygen generation quantum yield was calculated using Rose bengal (0.75) (DeRosa, M. C. & Crutchley, R. J. Photosensitized singlet oxygen and its applications. Coordination Chemistry Reviews 233-234, 351-371, doi:10.1016/S0010-8545(02)00034-6 (2002)) in PBS as a reference.
Whether HMRIef had photosensitizing ability was examined. In the examination, the singlet oxygen generation ability was evaluated by the light emission intensity at […] under light irradiation conditions using the property that singlet oxygen (^1O2) generated by energy transfer from the photoexcited probe to oxygen molecules emits near-infrared light having a peak top near 1,270 nm.
The right view of FIG. 6 illustrates the light emission spectrum of ^1O2 by 508 nm laser excitation. The dashed line was taken as the background. The spectra were measured in PBS with pH 7.4 containing 0.1% DMSO as a co-solvent (dye concentration: 1 μM). […]

[3] = in PBS, used as reference; cited from earlier work

fluorescence quantum yield (Φfl) [1]	singlet oxygen generation quantum yield [2]	Structure (SMILES)	singlet oxygen generation quantum yield (reference value) [3]
0.78	0.05±0.14	O=c1ccc2c(-c3ccccc3CO)c3ccc(NCC(F)(F)F)cc3oc-2c1 [HMRef]	
		O=C([O-])c1c(Cl)c(Cl)c(Cl)c(Cl)c1-c1c2cc(I)c(=O)c(I)c-2oc2c(I)c([O-])c(I)cc12.[Na+].[Na+] [Rose bengal]	0.75
